Laboratory results reported in patent US9169209B2, “Compounds and compositions for the inhibition of NAMPT” (FORMA TM, LLC, priority 2011, dated 2015).

How the values were obtained:
NAMPT = NAMPT (Homo sapiens (Human), UniProt P43490); experiment: Biochemical Inhibition Assay (NAMPT enzymatic reaction, NMN quantified by mass spectrometry); details: recombinant His-tagged NAMPT, 33 nM; 1 μM NAM; read-out: Biochem IC50
Method: Recombinant His-tagged NAMPT was produced in E. coli cells, purified over a Ni column, and further purified over a size-exclusion column by XTAL Biostructures.
The NAMPT enzymatic reactions were carried out in Buffer A (50 mM Hepes pH 7.5, 50 mM NaCl, 5 mM MgCl2, and 1 mM THP) in 96-well V-bottom plates. The compound titrations were performed in a separate dilution plate by serially diluting the compounds in DMSO to make a 100× stock. […] The compound and enzyme mix was incubated for 15 minutes at room temperature, then 10 μL of 10× substrate and co-factors in Buffer A were added to the test well to make a final concentration of 1 μM NAM, 100 μM 5-Phospho-D-ribose 1-diphosphate (PRPP), and 2.5 mM Adenosine 5′-triphosphate (ATP). The reaction was allowed to proceed for 30 minutes at room temperature, then was quenched with the addition of 11 μL of a solution of formic acid and L-Cystathionine to make a final concentration of 1% formic acid and 10 μM L-Cystathionine. Background and signal strength was determined by addition (or non-addition) of a serial dilution of NMN to a pre-quenched enzyme and cofactor mix.
A mass spectrometry-based assay was used to measure the NAMPT reaction product (NMN) and the internal control (L-Cystathionine). NMN and L-Cystathionine were detected using the services of Biocius Lifesciences with the RapidFire system. In short, the NMN and L-Cystathionine are bound to a graphitic carbon cartridge in 0.1% formic acid, eluted in 30% acetonitrile buffer, and injected into a Sciex 4000 mass spectrometer. The components of the sample were ionized with electrospray ionization and the positive ions were detected. […] The fragments are quantified and the analyzed by the following method.
First the NMN signal is normalized to the L-Cystathionine signal by dividing the NMN signal by the L-Cystathionine signal for each well. The signal from the background wells are averaged and subtracted from the test plates.
Wherein x denotes the average signal of the compound treated wells and y denotes the average signal of the DMSO treated wells.
IC50s are Determined Using Excel and this Formula.
Wherein X denotes the compound concentration 1, Y denotes the compound concentration 2, XX denotes the % inhibition at compound concentration 1 (X), and YY denotes the % inhibition at compound concentration 2 (Y).

A2780 cells = experiment: In-Vitro Cell Proliferation Assay (SRB, 72 hours); format: cell-based; details: Homo sapiens, A2780, 72 h, A2780 cells, 72 hours, sulforhodamine B; read-out: A2780 IC50
Method: After overnight incubation at 37° C. and 5% CO2, the compound titrations were performed in a separate dilution plate by serially diluting the compounds in DMSO to make a 1000× stock. The compounds were then further diluted to 10× final concentration in culture media, whereupon 20 μL of each dilution was added to the plated cells with controls (e.g. DMSO and blank) to make a final volume of 200 μL. The final DMSO concentration in each well was 0.1%. The plates were then incubated for 72 hours at 37° C. in a 5% CO2 incubator. The number of viable cells was then assessed using sulforhodamine B (SRB) assay. Cells were fixed at 4° C. for 1 hour with the addition of 50 μL 30% trichloroacetic acid (TCA) to make a final concentration of 6% TCA. The plates were washed four times with H2O and allowed to dry for at least 1 hour, whereupon 100 μL of a 4% SRB in 1% acetic acid solution was added to each well and incubated at room temperature for at least 30 minutes. The plates were then washed three times with 1% acetic acid, dried, and treated with 100 μL of 10 mM Tris-Base solution. The plates were then read in a microplate reader at an absorbance of 570 nm. Background was generated on a separate plate with media only.
First, the signals from the background plate are averaged and then the background was subtracted from the test plates.
wherein x denotes the average signal of the compound-treated cells and y denotes the average signal of the DMSO-treated cells.
wherein X denotes the compound concentration 1, Y denotes the compound concentration 2, XX denotes the % inhibition at compound concentration 1 (X), and YY denotes the % inhibition at compound concentration 2 (Y).

Sequence of NAMPT (P43490 whole entry): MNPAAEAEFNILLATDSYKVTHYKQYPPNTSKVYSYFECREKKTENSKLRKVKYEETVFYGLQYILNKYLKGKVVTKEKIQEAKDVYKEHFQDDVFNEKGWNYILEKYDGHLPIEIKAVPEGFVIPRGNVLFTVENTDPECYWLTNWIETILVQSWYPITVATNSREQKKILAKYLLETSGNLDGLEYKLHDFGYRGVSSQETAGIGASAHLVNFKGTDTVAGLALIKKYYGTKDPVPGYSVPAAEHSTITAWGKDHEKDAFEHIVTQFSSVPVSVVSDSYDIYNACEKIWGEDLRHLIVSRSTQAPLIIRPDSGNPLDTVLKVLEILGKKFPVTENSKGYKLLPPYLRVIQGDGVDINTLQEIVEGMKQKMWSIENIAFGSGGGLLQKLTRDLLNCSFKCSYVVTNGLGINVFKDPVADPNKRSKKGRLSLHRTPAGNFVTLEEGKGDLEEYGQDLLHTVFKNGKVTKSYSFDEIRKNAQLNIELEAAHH

Compound | IC50 (NAMPT) | IC50 (A2780 cells)
CCN(CC)C(=O)c1cc(Cl)cc(S(=O)(=O)c2ccc(NC(=O)/C=C/c3cccnc3)cc2)c1 [3-chloro-N,N-diethyl-5-({4-[(2E)-3-(pyridin-3-yl)prop-2-enamido]benzene}sulfonyl)benzamide] | 0.0194 µM | 0.0274 µM
O=C(/C=C/c1cccnc1)Nc1ccc(S(=O)(=O)c2ccccc2OC(F)(F)F)cc1 [(2E)-3-(pyridin-3-yl)-N-(4-{[2-(trifluoromethoxy)benzene]sulfonyl}phenyl)prop-2-enamide] | 0.0036 µM | 0.0157 µM
O=C(/C=C/c1cccnc1)Nc1ccc(S(=O)(=O)Nc2ccccc2OC(F)(F)F)cc1 [(2E)-3-(pyridin-3-yl)-N-(4-{[2-(trifluoromethoxy)phenyl]sulfamoyl}phenyl)prop-2-enamide] | 0.375 µM | 1.27 µM
O=C(/C=C/c1cccnc1)Nc1ccc(S(=O)(=O)c2cccc(OC(F)(F)F)c2)cc1 [(2E)-3-(pyridin-3-yl)-N-(4-{[3-(trifluoromethoxy)benzene]sulfonyl}phenyl)prop-2-enamide] | 0.0615 µM | 0.0477 µM
O=C(/C=C/c1cccnc1)Nc1ccc(S(=O)(=O)c2cccc(C(F)(F)F)c2)cc1 [(2E)-3-(pyridin-3-yl)-N-(4-{[3-(trifluoromethyl)benzene]sulfonyl}phenyl)prop-2-enamide] | 0.0319 µM | 0.107 µM
O=C(/C=C/c1cccnc1)Nc1ccc(S(=O)(=O)c2ccc(OC(F)(F)F)cc2)cc1 [(2E)-3-(pyridin-3-yl)-N-(4-{[4-(trifluoromethoxy)benzene]sulfonyl}phenyl)prop-2-enamide] | 0.167 µM | 0.1 to 1 µM
O=C(/C=C/c1cccnc1)Nc1ccc(S(=O)(=O)c2ccc(C(F)(F)F)cc2)cc1 [(2E)-3-(pyridin-3-yl)-N-(4-{[4-(trifluoromethyl)benzene]sulfonyl}phenyl)prop-2-enamide] | 0.0565 µM | 0.1 to 1 µM
O=C(/C=C/c1cccnc1)Nc1ccc(S(=O)(=O)c2cccnc2)cc1 [(2E)-3-(pyridin-3-yl)-N-[4-(pyridine-3-sulfonyl)phenyl]prop-2-enamide] | 0.0183 µM | 0.1 to 1 µM
O=C(/C=C/c1cccnc1)Nc1ccc(S(=O)(=O)c2cnc3ccccc3c2)cc1 [(2E)-3-(pyridin-3-yl)-N-[4-(quinoline-3-sulfonyl)phenyl]prop-2-enamide] | 0.0037 µM | 0.1 µM
O=C(/C=C/c1cccnc1)Nc1ccc(S(=O)(=O)c2ccc3ncccc3c2)cc1 [(2E)-3-(pyridin-3-yl)-N-[4-(quinoline-6-sulfonyl)phenyl]prop-2-enamide] | 0.0054 µM | 0.0762 µM
O=C(/C=C/c1cccnc1)Nc1ccc(S(=O)(=O)c2cccc3cccnc23)cc1 [(2E)-3-(pyridin-3-yl)-N-[4-(quinoline-8-sulfonyl)phenyl]prop-2-enamide] | 0.0036 µM | 0.0122 µM
O=C(/C=C/c1cccnc1)Nc1ccc(S(=O)(=O)c2cncc(N3CCCC3)c2)cc1 [(2E)-3-(pyridin-3-yl)-N-{4-[5-(pyrrolidin-1-yl)pyridine-3-sulfonyl]phenyl}prop-2-enamide] | 0.0014 µM | 0.0511 µM
NS(=O)(=O)c1cccc(S(=O)(=O)c2ccc(NC(=O)/C=C/c3cccnc3)cc2)c1 [(2E)-3-(pyridin-3-yl)-N-{4-[(3-sulfamoylbenzene)sulfonyl]phenyl}prop-2-enamide] | 0.0099 µM | 0.1 to 1 µM
O=C(/C=C/c1cccnc1)Nc1ccc(S(=O)(=O)c2cccc3c2oc2ccccc23)cc1 [(2E)-N-(4-{8-oxatricyclo[7.4.0.0^2,^7]trideca-1(13),2,4,6,9,11-hexaene-6-sulfonyl}phenyl)-3-(pyridin-3-yl)prop-2-enamide] | 0.0035 µM | 0.0073 µM
O=C(/C=C/c1cccnc1)Nc1ccc(S(=O)(=O)c2cc(OC(F)(F)F)ccc2Cl)cc1 [(2E)-N-(4-{[2-chloro-5-(trifluoromethoxy)benzene]sulfonyl}phenyl)-3-(pyridin-3-yl)prop-2-enamide] | 0.021 µM | 0.1 to 1 µM
COc1cc(C(F)(F)F)ccc1S(=O)(=O)c1ccc(NC(=O)/C=C/c2cccnc2)cc1 [(2E)-N-(4-{[2-methoxy-4-(trifluoromethyl)benzene]sulfonyl}phenyl)-3-(pyridin-3-yl)prop-2-enamide] | 0.0596 µM | 0.118 µM
COc1ccc(C(C)C)cc1S(=O)(=O)c1ccc(NC(=O)/C=C/c2cccnc2)cc1 [(2E)-N-(4-{[2-methoxy-5-(propan-2-yl)benzene]sulfonyl}phenyl)-3-(pyridin-3-yl)prop-2-enamide] | 0.0026 µM | 0.0167 µM
COc1ccc(OC(F)(F)F)cc1S(=O)(=O)c1ccc(NC(=O)/C=C/c2cccnc2)cc1 [(2E)-N-(4-{[2-methoxy-5-(trifluoromethoxy)benzene]sulfonyl}phenyl)-3-(pyridin-3-yl)prop-2-enamide] | 0.0168 µM | 0.0293 µM
COc1ccc(C(F)(F)F)cc1S(=O)(=O)c1ccc(NC(=O)/C=C/c2cccnc2)cc1 [(2E)-N-(4-{[2-methoxy-5-(trifluoromethyl)benzene]sulfonyl}phenyl)-3-(pyridin-3-yl)prop-2-enamide] | 0.0242 µM | 0.019 µM
Cc1cc(C(F)(F)F)ccc1S(=O)(=O)c1ccc(NC(=O)/C=C/c2cccnc2)cc1 [(2E)-N-(4-{[2-methyl-4-(trifluoromethyl)benzene]sulfonyl}phenyl)-3-(pyridin-3-yl)prop-2-enamide] | 0.0628 µM | 0.1 to 1 µM
O=C(/C=C/c1cccnc1)Nc1ccc(S(=O)(=O)c2cccc(-n3cccn3)c2)cc1 [(2E)-N-(4-{[3-(1H-pyrazol-1-yl)benzene]sulfonyl}phenyl)-3-(pyridin-3-yl)prop-2-enamide] | 0.0048 µM | 0.088 µM
CC(C)COc1cccc(S(=O)(=O)c2ccc(NC(=O)/C=C/c3cccnc3)cc2)c1 [(2E)-N-(4-{[3-(2-methylpropoxy)benzene]sulfonyl}phenyl)-3-(pyridin-3-yl)prop-2-enamide] | 0.0567 µM | 0.1 to 1 µM
Cc1cc(C)n(-c2cccc(S(=O)(=O)c3ccc(NC(=O)/C=C/c4cccnc4)cc3)c2)n1 [(2E)-N-(4-{[3-(3,5-dimethyl-1H-pyrazol-1-yl)benzene]sulfonyl}phenyl)-3-(pyridin-3-yl)prop-2-enamide] | 0.0091 µM | 0.0319 µM
CCS(=O)(=O)c1cccc(S(=O)(=O)c2ccc(NC(=O)/C=C/c3cccnc3)cc2)c1 [(2E)-N-(4-{[3-(ethanesulfonyl)benzene]sulfonyl}phenyl)-3-(pyridin-3-yl)prop-2-enamide] | 0.0173 µM | 0.0704 µM
Cn1ncc2ccc(S(=O)(=O)c3ccc(NC(=O)/C=C/c4cccnc4)cc3)cc21 [(2E)-N-[4-(1-methyl-1H-indazole-6-sulfonyl)phenyl]-3-(pyridin-3-yl)prop-2-enamide] |  | 0.053 µM
COc1ccc2cc(S(=O)(=O)c3ccc(NC(=O)/C=C/c4cccnc4)cc3)ccc2c1 [(2E)-N-[4-(6-methoxynaphthalene-2-sulfonyl)phenyl]-3-(pyridin-3-yl)prop-2-enamide] |  | 0.1 to 1 µM
Cc1ccc(S(=O)(=O)c2ccc(NC(=O)/C=C/c3cccnc3)cc2)cn1 [(2E)-N-[4-(6-methylpyridine-3-sulfonyl)phenyl]-3-(pyridin-3-yl)prop-2-enamide] |  | 0.1 to 1 µM
Cc1cccc(S(=O)(=O)c2ccc(NC(=O)/C=C/c3cccnc3)cc2)c1 [(2E)-N-{4-[(3-methylbenzene)sulfonyl]phenyl}-3-(pyridin-3-yl)prop-2-enamide] |  | 0.0933 µM
